Test results as given in US6627580B2, “Chelating agents and their manganic chelates” (Akzo Nobel N.V., priority 1997, dated 2003).
Values belong to the molecule of their own block, whether it stands above or below them.

Legend:
[1] = Ahrland et al. 1990, cited from earlier work
[2] = Preference of the new chelant for manganic ions over ferric ions (citrate solutions, pH 7.8); type: physicochemical; settings: for colour developed: pH 7.8
Description: In order to show the preference of the new chelants for manganic ions over ferric ions, stable, slightly alkaline solutions of these ions were prepared by chelation with two moies of citric acid. Both solutions were adjusted with sodium hydroxide to a pH of 7.8 at a concentration of 0.001 mmole/ml of manganese and iron, respectively. Three experiments were made for comparison:
a) of each solution 10 ml (0.01 mmole) was mixed, and 0.25 g of the 0.04 molar chelate (or ligand) solution from. Example 1 […] was added.
b) 10 ml of manganic citrate solution was mixed with 0.25 g of the chelate solution.
c) 10 ml of the ferric citrate solution was mixed with 0.25 g of the chelate solution.

[3] = Hydrolytic stability of the new manganic chelate (step-wise alkalisation with dilute sodium hydroxide); type: physicochemical
Excerpt: The manganic chelate solution from Example 2 was alkalised step-wise with dilute sodium hydroxide. Samples were taken at various pH and set aside for later inspection.

[4] = Shaking test with calcium carbonate; type: physicochemical
Excerpt: The test in Example 6 was repeated with the new manganic chelate but with analytical grade calcium carbonate instead of soil. The pH of the suspension was 8.5.

[5] = Soil tests with the new manganic chelate and other manganese sources; type: physicochemical
Description: A soil sample was taken from a sugar-beet field in Helsingborg, Sweden. It was sifted and homogenised and analysed by a certified agricultural laboratory by so-called ICP after extraction with dilute acetic of EDTA.
35 g portions of the slightly moist soil were transferred to 250 ml glass bottles together with 120 ml of dilute solutions containing about 30 ppm manganese. The solutions to be tested were made from:
The bottles were rotated in a tumbling device at about 1 revolution per second for a period of 19 days. […] The clear liquid samples were analysed by ICP.

[6] = Comparative test with a reduced chelant (manganic chelate of borohydride-reduced chelant); type: physicochemical
Description: A solution of the chelant according to Example 1 was adjusted to a concentration of 10 mmoles/L and a pH of 5. Sodium borohydride was added at 5 minute intervals until the yellow salicylimine colour disappeared. The pH was then adjusted to 8, and the manganic chelate was generated as described in Example 2 for a final pH of 8.

[7] = Formation and hydrolytic stability of a ferric chelate; type: physicochemical; settings: for Appearance of ferric chelate solution: colour observed during the next 1-2 hours
Description: 2 ml of the chelate solution from Example 1 (0.08 mmole) was diluted with 15 ml water and 1 ml of 0.05 molar ferric chloride solution was added dropwise. The pH was brought to 7 with dilute sodium hydroxide, giving a dark wine red solution. The solution was then gradually alkalised by the addition of dilute sodium hydroxide, and the colour was observed during the next 1-2 hours.

[8] = Tropolone chelant with molar equivalents of manganic and ferric ions; type: physicochemical; settings: pH 9
[9] = pH stability of manganic and ferric chelates of the tropolone chelant; type: physicochemical
Description: The manganic chelate of the new chelant was prepared in analogy with Example 2 and formed a brown solution stable at pH 10.
With ferric iron ions the chelant formed a red solution at pH 5. On raising the pH the red colour started to fade at pH 7-8.

[10] = b) manganic citrate solution only
[11] = c) ferric citrate solution only

Compound: O=C(O)C(NCCNC(C(=O)O)c1ccccc1O)c1ccccc1O (stereo not drawn) [EDDHA, ethylenediamine-di-2-hydroxyphenylacetic acid]
pKa for hydrolysis of ferric chelate ([1]; ferric chelate): 12.7

Compound: O=C([O-])CC(N=Cc1ccccc1[O-])C(CC(=O)[O-])N=Cc1ccccc1[O-].[Mn+3] (stereo not drawn) [Example 2]
pH up to which the manganic chelate forms stable solutions / is stable to hydrolysis ([3]; manganic chelate): at least 10.5
appearance of manganic chelate solution ([3]; pH 8, after 1 h): clear,
appearance of manganic chelate solution ([3]; pH 8, after 24 hours): clear, same colour
appearance of manganic chelate solution ([3]; pH 8, after 5 days): clear,
appearance of manganic chelate solution ([3]; pH 8, immediately): clear ochre
appearance of manganic chelate solution ([3]; pH 9, after 1 h): clear,
appearance of manganic chelate solution ([3]; pH 9, after 24 hours): clear, same colour
appearance of manganic chelate solution ([3]; pH 9, after 5 days): clear,
appearance of manganic chelate solution ([3]; pH 9, immediately): clear, same colour
appearance of manganic chelate solution ([3]; pH 10.5, after 1 h): clear,
appearance of manganic chelate solution ([3]; pH 10.5, after 24 hours): clear, same colour
appearance of manganic chelate solution ([3]; pH 10.5, after 5 days): clear,
appearance of manganic chelate solution ([3]; pH 10.5, immediately): clear, same colour
appearance of manganic chelate solution ([3]; pH 11, after 1 h): clear,
appearance of manganic chelate solution ([3]; pH 11, after 24 hours): slight precipitate
appearance of manganic chelate solution ([3]; pH 11, after 5 days): slight
appearance of manganic chelate solution ([3]; pH 11, immediately): clear, same colour
appearance of manganic chelate solution ([3]; pH 11.3, after 1 h): precipitation
appearance of manganic chelate solution ([3]; pH 11.3, after 24 hours): considerable dark
appearance of manganic chelate solution ([3]; pH 11.3, after 5 days): as before
appearance of manganic chelate solution ([3]; pH 11.3, immediately): clear, same colour
manganese content in the liquid phase ([4]; calcium carbonate suspension, pH 8.5, remained constant for several weeks): 30 ppm
colour of liquid phase ([4]; calcium carbonate suspension, pH 8.5, several weeks): remained the same yellow ochre
solubility in shaking test with calcium carbonate ([4]; for at least several weeks): completely soluble
hydrolytic stability ([4]; pH 8.5 in the presence of calcium): excellent hydrolytic stability
soluble manganese retained, of its original content ([5]; after 19 days with soil of low manganese, high iron content): about 50%
time to visible colour change of centrifuged sample to orange yellow ([5]; soil test): after a week

Compound: O=C([O-])CC(NCc1ccccc1[O-])C(CC(=O)[O-])NCc1ccccc1[O-].[Mn+3] (stereo not drawn) [Example 4]
stability to hydrolysis of manganic chelate of reduced chelant [6]: very unstable to hydrolysis
result on generating the manganic chelate ([6]; final pH of 8): immediate dark precipitate
manganese dioxide precipitation ([6]; neutral pH): started to precipitate immediately

Compound: O=C(O)C(NCCNC(C(=O)O)c1ccccc1O)c1ccccc1O.[Mn+3] (stereo not drawn) [manganic EDDHA, reference compound]
pKa for hydrolysis of manganic chelate ([1]; manganic chelate): 9.3
time to colour change of centrifuged sample from brownish to red (manganese replaced by ferric iron) ([5]; soil test): ≤ 1 days

Further lines, with some results ahead:

stability of the yellow colour ([2]; a) manganic citrate + ferric citrate solutions): stable for weeks
colour developed ([2]; a) manganic citrate + ferric citrate solutions (0.01 mmole each)): yellow ochre colour
stability of the yellow colour [2, 10]: stable for weeks
colour developed [2, 10]: yellow ochre colour
time until solution turned completely red [2, 11]: about one hour
colour developed [2, 11]: red colour
selectivity between ferric and manganic ions ([2]; near neutral pH, yellow colour stable for at least several weeks): remarkable preference for manganic ion
Compound: O=C(O)CC(N=Cc1ccccc1O)C(CC(=O)O)N=Cc1ccccc1O (stereo not drawn) [Example 1]

pH at which the ferric chelate starts to hydrolyse [7]: 9
Appearance of ferric chelate solution ([7]; pH 7): Wine red
Appearance of ferric chelate solution ([7]; pH 8): Wine red
Appearance of ferric chelate solution ([7]; pH 9): Slightly lighter wine red
Appearance of ferric chelate solution ([7]; pH 10): Lighter wine red
Appearance of ferric chelate solution ([7]; pH 11): Much lighter wine red
Compound: O=C([O-])CC(N=Cc1ccccc1[O-])C(CC(=O)[O-])N=Cc1ccccc1[O-].[Fe+3] (stereo not drawn) [Example 5]

colour with molar equivalents of both manganic and ferric ions (indicating preference for manganic ions) [8]: stable brown colour
pH at which the red colour started to fade ([9]; ferric chelate, on raising the pH): 7-8
appearance with ferric iron ions ([9]; ferric chelate, pH 5): red solution
stability of manganic chelate solution (brown) ([9]; manganic chelate, pH 10): stable
Compound: O=C(O)CC(N=c1cccccc1O)C(CC(=O)O)N=c1cccccc1O (stereo not drawn) [Example 9]
appearance with ferric iron ions ([9]; ferric chelate, pH 10): turned yellow, with precipitation of the ferric hydroxide
